Experimental data taken from the supplement of paper PMC10627819.

Columns and labels:
Conditions in all cases: main component drawn
S. aureus Newman [1] = experiment: fitness (endpoint OD595 vs no drug) (fraction); higher = more growth
In short: (§1)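 In 384-well plates at 37 °C, cultures began at OD595 0.01 in 30 µl, with 55 µl used for S. pneumoniae. OD595 readings every 30 min for 14 h were corrected by the first reading. Fitness divides the stationary-phase transition optical density by the robust mean of no-drug control wells. The result is capped at 1.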

B. subtilis 168 [2] = experiment: as above
In short: as §1

S. pneumoniae D39V [3] = experiment: as above
In short: as §1

S. aureus Newman [4] = experiment: Bliss interaction score (quartile over a dose matrix) (fitness difference); higher = more antagonism (negative = synergy)
In short: (§2)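 The Bliss score is observed fitness minus expected fitness, where the expected value is the product of single-drug fitness values inferred from combination data. Fitness is OD595 at entry into stationary phase normalised to the plate's robust no-drug mean and capped at 1. Scores are reported as quartiles spanning technical, biological and donor/recipient replicates.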

S. aureus DSM 20231 = experiment: as above
In short: as §2

B. subtilis 168 [5] = experiment: as above
In short: as §2

S. pneumoniae D39V [6] = experiment: as above
In short: as §2
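Wherever Bliss interaction score (quartile over a dose matrix) is given: first quartile when negative (synergy) and third quartile when positive (antagonism).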
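Wherever fitness (endpoint OD595 vs no drug) is given: OD595 on entry to stationary phase over no-drug wells; at most 1.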

CNC(C)C1CCC(N)C(OC2C(N)CC(N)C(OC3OCC(C)(O)C(NC)C3O)C2O)O1 (stereo unspecified) [Gentamicin] + CN1C2=CC=CC=C2N=C3C1=CC=CC3=O [Pyocyanin]
fitness, S. aureus Newman [1], one replicate
Conditions | first compound 0.375 µg/mL | first compound 0.75 µg/mL | first compound 1.5 µg/mL
partner 1.25 µg/mL | 0.76 | 0.775 | 0.774
partner 2.5 µg/mL | 0.791 | 0.776 | 0.783
partner 5 µg/mL | 0.439 | 0.463 | 0.421

Conditions | fitness
B. subtilis 168 [2], first compound 0.0625 µg/mL, partner 1.25 µg/mL | 0.893
B. subtilis 168 [2], first compound 0.0625 µg/mL, partner 2.5 µg/mL | 0.802
B. subtilis 168 [2], first compound 0.0625 µg/mL, partner 5 µg/mL | 0.758
B. subtilis 168 [2], first compound 0.125 µg/mL, partner 5 µg/mL | 0.559
B. subtilis 168 [2], first compound 0.25 µg/mL, partner 1.25 µg/mL | 0.0424
B. subtilis 168 [2], first compound 0.25 µg/mL, partner 2.5 µg/mL | 0.038
B. subtilis 168 [2], first compound 0.25 µg/mL, partner 5 µg/mL | 0.0455
S. aureus Newman [1], first compound 0.5 µg/mL, partner 1.25 µg/mL | 0.908
S. aureus Newman [1], first compound 0.5 µg/mL, partner 2.5 µg/mL | 0.873
S. aureus Newman [1], first compound 1 µg/mL, partner 1.25 µg/mL | 0.942
S. aureus Newman [1], first compound 1 µg/mL, partner 2.5 µg/mL | 0.909
S. aureus Newman [1], first compound 1 µg/mL, partner 5 µg/mL | 0.645
S. aureus Newman [1], first compound 2 µg/mL, partner 1.25 µg/mL | 0.917
S. aureus Newman [1], first compound 2 µg/mL, partner 2.5 µg/mL | 0.903
S. aureus Newman [1], first compound 2 µg/mL, partner 5 µg/mL | 0.545
S. pneumoniae D39V [3], first compound 2 µg/mL, partner 0.325 µg/mL | 0.962
S. pneumoniae D39V [3], first compound 2 µg/mL, partner 0.65 µg/mL | 0.964
S. pneumoniae D39V [3], first compound 2 µg/mL, partner 1.3 µg/mL | 0.6
S. pneumoniae D39V [3], first compound 4 µg/mL, partner 0.325 µg/mL | ≥ 1
S. pneumoniae D39V [3], first compound 4 µg/mL, partner 0.65 µg/mL | 0.959
S. pneumoniae D39V [3], first compound 4 µg/mL, partner 1.3 µg/mL | 0.599
S. pneumoniae D39V [3], first compound 8 µg/mL, partner 0.325 µg/mL | 0.94
S. pneumoniae D39V [3], first compound 8 µg/mL, partner 0.65 µg/mL | 0.865
S. pneumoniae D39V [3], first compound 8 µg/mL, partner 1.3 µg/mL | 0.531

Conditions | Bliss interaction score
B. subtilis 168 [5] | 0.129
S. aureus DSM 20231 | 0.0622
S. aureus Newman [4] | 0.111
S. pneumoniae D39V [6] | -0.113

CNC(C)C1CCC(N)C(OC2C(N)CC(N)C(OC3OCC(C)(O)C(NC)C3O)C2O)O1 (stereo unspecified) [Gentamicin] + CN(C)c1cc(NC(=O)CNC(C)(C)C)c(O)c2c1C[C@H]1C[C@H]3[C@H](N(C)C)C(O)=C(C(N)=O)C(=O)[C@@]3(O)C(O)=C1C2=O [Tigecycline]
fitness, one replicate
Conditions | first compound 0.0625 µg/mL | first compound 0.125 µg/mL | first compound 0.25 µg/mL | first compound 0.375 µg/mL | first compound 0.75 µg/mL | first compound 1.5 µg/mL
B. subtilis 168 [2], partner 0.125 µg/mL | ≥ 1 | ≥ 1 | 0.0664 | – | – | –
B. subtilis 168 [2], partner 0.25 µg/mL | 0.91 | 0.891 | 0.315 | – | – | –
B. subtilis 168 [2], partner 0.5 µg/mL | 0.965 | 0.879 | 0.21 | – | – | –
S. aureus Newman [1], partner 0.039 µg/mL | – | – | – | 0.935 | 0.933 | 0.953
S. aureus Newman [1], partner 0.078 µg/mL | – | – | – | 0.97 | ≥ 1 | 0.966
S. aureus Newman [1], partner 0.156 µg/mL | – | – | – | ≥ 1 | 0.969 | 0.964

Conditions | fitness
B. subtilis 168 [2], first compound 0.0625 µg/mL, partner 0.039 µg/mL | 0.967
B. subtilis 168 [2], first compound 0.0625 µg/mL, partner 0.078 µg/mL | 0.908
B. subtilis 168 [2], first compound 0.0625 µg/mL, partner 0.156 µg/mL | 0.907
B. subtilis 168 [2], first compound 0.25 µg/mL, partner 0.039 µg/mL | 0.186
B. subtilis 168 [2], first compound 0.25 µg/mL, partner 0.078 µg/mL | 0.0549
B. subtilis 168 [2], first compound 0.25 µg/mL, partner 0.156 µg/mL | 0.0589
S. aureus Newman [1], first compound 0.5 µg/mL, partner 0.039 µg/mL | 0.974
S. aureus Newman [1], first compound 0.5 µg/mL, partner 0.078 µg/mL | 0.949
S. aureus Newman [1], first compound 0.5 µg/mL, partner 0.156 µg/mL | 0.935
S. aureus Newman [1], first compound 1 µg/mL, partner 0.039 µg/mL | 0.988
S. aureus Newman [1], first compound 1 µg/mL, partner 0.078 µg/mL | ≥ 1
S. aureus Newman [1], first compound 1 µg/mL, partner 0.156 µg/mL | ≥ 1
S. aureus Newman [1], first compound 2 µg/mL, partner 0.039 µg/mL | ≥ 1
S. aureus Newman [1], first compound 2 µg/mL, partner 0.078 µg/mL | ≥ 1
S. aureus Newman [1], first compound 2 µg/mL, partner 0.156 µg/mL | ≥ 1
S. pneumoniae D39V [3], first compound 2 µg/mL, partner 0.325 µg/mL | 0.94
S. pneumoniae D39V [3], first compound 2 µg/mL, partner 0.65 µg/mL | 0.9
S. pneumoniae D39V [3], first compound 2 µg/mL, partner 1.3 µg/mL | 0.909
S. pneumoniae D39V [3], first compound 2 µg/mL, partner 2.6 µg/mL | 0.897
S. pneumoniae D39V [3], first compound 4 µg/mL, partner 0.325 µg/mL | 0.943
S. pneumoniae D39V [3], first compound 4 µg/mL, partner 0.65 µg/mL | 0.945
S. pneumoniae D39V [3], first compound 4 µg/mL, partner 1.3 µg/mL | 0.96
S. pneumoniae D39V [3], first compound 4 µg/mL, partner 2.6 µg/mL | 0.903
S. pneumoniae D39V [3], first compound 8 µg/mL, partner 0.325 µg/mL | 0.971
S. pneumoniae D39V [3], first compound 8 µg/mL, partner 0.65 µg/mL | 0.911
S. pneumoniae D39V [3], first compound 8 µg/mL, partner 1.3 µg/mL | 0.977
S. pneumoniae D39V [3], first compound 8 µg/mL, partner 2.6 µg/mL | 0.858

Conditions | Bliss interaction score
B. subtilis 168 [5] | 0.122
S. aureus DSM 20231 | -0.0407
S. aureus Newman [4] | -0.0289
S. pneumoniae D39V [6] | 0.0631
